Entries after “also recorded” stand apart in the source; their conditions may differ.

The values that follow come from patent US5552156A, “Liposomal and micellular stabilization of camptothecin drugs” (Ohio State University, priority 1995, dated 1996).

Holding throughout (format): physicochemical
Series [1] is described as follows: Overall association constant by fluorescence anisotropy titration, DMPG liposomes. As to conditions: for overall association constant K, DMPG: DMPG (negatively charged, fluid phase), PBS, 37° C.; for bound drug level, DMPG: DMPG liposomes, 0.29M lipid, estimated. How it is done: While the spectral changes provide qualitative evidence that the camptothecin drugs bind the liposome membranes, fluorescence anisotropy titration, offers the most sensitive means for quantitatively assessing the extent of the binding. The fluorescence anisotropy titration was performed according to the method of Burke and Tritton, Biochemistry 24: 1768-1776 (1985).
The concentrations of free camptothecin drugs and camptothecin drugs associated with liposomes were determined at various lipid concentrations. All experiments were conducted in glass tubes pretreated with a silating agent, Surfacil, from Pearce Chemical, Rockford, Ill. The titration was conducted at camptothecin drug concentration of 1×10^-6 M in PBS at 37° C. Anisotropy values at each lipid concentration were determined within less than 30 seconds following the addition of the camptothecin drugs to the liposome suspension. The (a) values were determined for fixed drug concentration, typically 2 μM, while the lipid concentration was varied from 0 to 0.29M. By varying the lipid concentration rather than varying the drug concentration, the problem of self-association phenomenon which occurs for camptothecin drugs concentrations in excess of 10 μM is avoided. Also, the well-known phenomenon known as inner filter effect which occurs using fluorescent material at high optical densities is a is avoided.
Adsorption isotherms like those shown in FIGS. 4A and 4B were used to determine overall association constants for the camptothecin drugs. Overall association constants are defined as: […]
where [AB ] represents the concentration of the camptothecin drug bound to the vesicle membrane, [AF ] represents the concentration of free drug, and [L] represents the total lipid concentration in the liposome suspension. This equation is valid when the concentration of free lipid is approximately equal to the concentration of total lipid, that is, the concentration of free lipid is in great excess over the concentration of bound drug. Provided this concentration is satisfied, K may be determined from the inverse of the slope of a double reciprocal plot according to (Burke and Tritton, Biochemistry 24:1776, 1985). In such a plot, 1/bound fraction of the total camptothecin drug is plotted vs. 1/[lipid], with a y-intercept value of 1.
The stabilization of camptothecin drugs was determined using different lipids. Three types of lipids (and thus 3 types of membranes) were examined: fluid-phase and electroneutral L-α-dimyristoylphosphatidylcholine (DMPC); fluid-phase and negatively-charged L-α-dimyristoylphosphatidylglycerol (DMPG), and solid-phase and electroneutral L-α-distearoylphosphatidylcholine (DSPC). While DMPC and DMPG have identical chain length, the charge on their head groups differ. DMPC and DSPC have identical head groups, but DMPC has acyl chains having 14 carbons per chain, which are four carbons shorter than the DSPC, which has 18 carbons per chain. This difference of 4-carbon chain length results in DMPC being fluid-phase at 37° C. while DSPC is solid-phase. The 7 camptothecin drugs listed in Table III were combined with liposomes containing the above lipids.
FIGS. 4A and 4B show the extent of camptothecin drug binding to liposomes as a function of lipid concentration for DMPC and DMPG liposomes. DMPC liposomes were made as in Example 1, at lipid concentrations from 0 to 0.29M, using CMC, 10-hydroxycamptothecin, 10,11-methylenedioxy-camptothecin, topotecan, camptothecin, and camptothecin carboxylate sodium salt, as shown in FIG. 4B. DMPG liposomes were made as in Example 2, at lipid concentrations from 0 to 0.29M, using 9-chloro-10,11-methylenedioxycamptothecin CMC, 10,11-methylenedioxycamptothecin, camptothecin, and topotecan, 9-aminocamptothecin, as shown in FIG. 4A. The lipid concentration […] of the data using double-reciprocal plots gave identical overall association/binding constants of 100M^-1.

Series [2] can be described thus: HPLC assay of lactone ring hydrolysis, free in PBS or associated with liposomes or micelles.
Series [3] can be described thus: Excited-state lifetime of camptothecin. As to conditions: for excited state-lifetime: 37° C. How it is done: The excited state-lifetime values of camptothecin free in solution was measured in PBS, glycerol, and methanol at 37° C. The lifetime values are 4.7 ns, 3.8 ns, and 3.5 ns, respectively. The average excited state-lifetime value of camptothecin when bound to DMPC liposome membrane is 3.7 ns. The measurements indicate that the excited-state lifetime of camptothecin is relatively insensitive to changes in solvent environment or to changes due to relocation of camptothecin from an aqueous environment to the lipid liposome membrane.
The picosecond fluorescence experiment were carried out with a Piridine I cavity dumped dye laser and frequency doubled light […]. The lifetime and correlation time were measured using frequency domain fluorometer operating up 10 GHz (Laczko et al., Rev. Sci. Instrum. 61: 2331, (1990)). The modulated exited light was obtained from the harmonic content of a laser pulse train with a repetition rate of 3.81 MHz and a pulse width of 5 ps. A mode locked […] Antares laser was used to pump the dye laser. The emission was observed through the cut of the filter […] by microchannel photomultiplier. The cross-correlation detection was done outside the photomultiplier tube, according to Laczko et al., Rev, Sci. Instrum. 61: 2331 (1990).

Series [4] in a line: Overall association constant by fluorescence anisotropy titration, DMPC liposomes. Particulars: 2 mM drug, 0.29M DMPC. (Polarisation of emitted light reports the rotation of a fluorescent probe.)

In the case of `CCC1(O)C(=O)OCc2c1cc1n(c2=O)Cc2cc3cc(O)ccc3nc2-1` (stereo not shown) [10-hydroxycamptothecin], the “overall association constant K, DMPG” value in series [1] was 75 M⁻¹.
As for `CCC1(O)C(=O)OCc2c1cc1n(c2=O)Cc2cc3cc4c(cc3nc2-1)OCO4` (stereo not shown) [10,11-methylenedioxycamptothecin], in series [2] (SDS micelles, about 2.5 hours), the “drug not hydrolysed at about 2.5 hours” value was “about 75%”. Besides, the “t1/2, octylphenolpolyoxyethylene micelles” value in series [2] (octylphenolpolyoxyethylene micelles, PBS pH 7.4) is 1.5 h.
Regarding `CCC1(O)C(=O)OCc2c1cc1n(c2=O)Cc2cc3c(Cl)c4c(cc3nc2-1)OCO4` (stereo not shown) [9-chloro-10,11-methylenedioxycamptothecin], in series [1], the “overall association constant K, DMPG” value is 320 M⁻¹ and the “bound drug level, DMPG” value is reported as 99%.
Regarding `CC[C@@]1(O)C(=O)OCc2c1cc1n(c2=O)Cc2cc3c(CN(C)C)c(O)ccc3nc2-1` [topotecan], in series [1] (DMPG), the “reduced ability to bind negatively-charged liposome membranes relative to CMC” value is 6 -fold. Also, in series [1], the “overall association constant K, DMPG” value stood at 50 M⁻¹ and the “bound drug level, DMPG” value is reported as 93%. Also, in series [1] (DMPG compared to DMPC), the “binding preference DMPG over DMPC” value is given as “preferentially binds negatively charged DMPG liposomes as compared to DMPC liposomes; also recorded: strong binding preference for the negatively-charged lipid DMPG”.
`CC[C@@]1(O)C(=O)OCc2c1cc1n(c2=O)Cc2cc3ccccc3nc2-1` [camptothecin]: the “t1/2 drug DSPC Lip.” value in series [2] (DSPC liposomes, pH 7.4, 37° C.) was ~ 100 min. For the same compound, the “bound drug level, DMPG” value in series [1] was 97%. Moreover, the excited state-lifetime in series [3] (PBS) came out at 4.7 ns; in series [3] (glycerol) it was 3.8 ns; in series [3] (methanol), 3.5 ns. In series [3] (bound to DMPC liposome membrane), this compound had an average excited state-lifetime of 3.7 ns. Further, in series [4], the “bound camptothecin level at raised drug concentration” value is reported as 97%.
